Data on 59 molecules can be found in patent US9718790B2, “Triazine derivative and pharmaceutical composition having an analgesic activity comprising the same” (SHIONOGI & CO., LTD., priority 2010, dated 2017).

Each structure is given as a SMILES string.

One test deals with human P2X3 receptor (Homo sapiens (Human), UniProt P56373). In words: Evaluation of human P2X3 receptor inhibitory activity (Fluo-3 calcium fluorescence, FDSS 3000, ATP stimulation).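 Note: stimulus was 50 nM ATP with fluorescence followed for 3 min, and the response per well was peak post-ATP fluorescence divided by the reading at measurement start.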 It is filed as cell-based. To be noted: C6BU-1 cells stably expressing human P2X3 receptor.
Sequence of human P2X3 receptor (P56373 whole entry): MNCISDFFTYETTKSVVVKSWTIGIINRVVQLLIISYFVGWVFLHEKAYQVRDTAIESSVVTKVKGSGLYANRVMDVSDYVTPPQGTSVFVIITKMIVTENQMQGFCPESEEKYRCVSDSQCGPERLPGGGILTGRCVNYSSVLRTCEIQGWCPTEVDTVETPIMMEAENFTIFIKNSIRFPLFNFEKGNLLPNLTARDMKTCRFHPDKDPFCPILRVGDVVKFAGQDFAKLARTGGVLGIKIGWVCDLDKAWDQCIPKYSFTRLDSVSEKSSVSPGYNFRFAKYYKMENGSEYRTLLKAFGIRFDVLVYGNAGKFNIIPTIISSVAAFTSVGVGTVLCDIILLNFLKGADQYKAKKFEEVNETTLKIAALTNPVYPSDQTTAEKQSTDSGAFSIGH
Consider `COC(=O)CCCn1c(=O)[nH]/c(=N\c2ccc3nc(C)sc3c2)n(Cc2ccc(Cl)cc2)c1=O` [Compound I-2142], for which the IC50 (as a rule, the concentration at which inhibition is half-maximal) came to 6 nM.

Consider `COC(=O)CCCn1c(=O)[nH]/c(=N\c2ccc(Oc3ccnc(C)c3)cc2)n(Cc2ccc(Cl)cc2)c1=O` [Compound I-1396], for which the IC50 came to 4 nM.

In the case of `CNC(=O)Cn1c(=O)[nH]/c(=N\c2ccc(OC3CCC3)cc2)n(Cc2ccc(Cl)cc2)c1=O` [Compound I-1948], the IC50 worked out at 22 nM.

For `COC(=O)[C@@H](C)Cn1c(=O)[nH]/c(=N\c2ccc3c(c2)CCO3)n(Cc2ccc(Cl)cc2)c1=O` [Compound I-0770], the 50% inhibitory concentration (IC50) was 405 nM.

As to `COC(=O)[C@@H](C)Cn1c(=O)[nH]/c(=N\c2ccc(OC(C)C)c(Cl)c2)n(Cc2ccccc2)c1=O` [Compound I-0763], the IC50 is 80 nM.

On to `CCn1c(=O)[nH]/c(=N\c2ccc(Oc3cccc(NC(C)=O)c3)cc2)n(Cc2ccc(Cl)cc2)c1=O` [Compound I-2139], for which the IC50 is 22 nM.

Take `CCOC(=O)CCCn1c(=O)[nH]/c(=N\c2ccc3oc(C)cc3c2)n(Cc2ccc(C)cc2)c1=O` [Compound I-0574]: the 50% inhibitory concentration (IC50) worked out at 15 nM.

For `Cc1ccc(Cn2c(=O)n([C@H](C)[C@H](C)C(=O)O)c(=O)[nH]/c2=N\c2ccc(OC(C)C)cc2)cc1` [Compound I-1336], the IC50 was 71 nM.

As for `CCn1c(=O)[nH]/c(=N\c2ccc(Oc3ccc(-c4ncn[nH]4)cc3)cc2)n(Cc2ccc(Cl)cc2)c1=O` [Compound I-1973], the half-maximal inhibitory concentration (IC50) came out at 2 nM.

Take `O=C(O)CCn1c(=O)[nH]/c(=N\c2ccc(Oc3cccc(F)c3)cc2)n(Cc2ccc(Cl)cc2)c1=O` [Compound I-1951]: the IC50 stood at 25 nM.

For `COc1cc(/N=c2\[nH]c(=O)n(CCC(=O)O)c(=O)n2Cc2ccc(C)cc2)ccc1CC(C)C` [Compound I-1362], the IC50 amounted to 54 nM.

On to `COC(=O)Cn1c(=O)[nH]/c(=N\c2ccc(OC3CCC3)cc2)n(Cc2ccc(Cl)cc2)c1=O` [Compound I-1939], for which the IC50 came out at 30 nM.

On to `Cc1[nH]c2ccc(/N=c3\[nH]c(=O)n(C[C@H](O)CO)c(=O)n3Cc3ccc(Cl)cc3)cc2c1C` [Compound I-2043], for which the IC50 came to 9 nM.

For the molecule `Cc1ccc(Cn2c(=O)n(C[C@H](C)C(=O)O)c(=O)[nH]/c2=N\c2ccc(Oc3ccnc(C)c3)cc2)cc1` [Compound I-1269], the IC50 is 8 nM.

Turning to `CCn1c(=O)[nH]/c(=N\c2ccc(Oc3cccc(C(=O)OC)n3)cc2)n(Cc2ccc(Cl)cc2)c1=O` [Compound I-2067], the half-inhibitory concentration (IC50) turned out to be 21 nM.

On to `CCOC(=O)CCn1c(=O)[nH]/c(=N\c2ccc(OC(C)C)c(C3CC3)c2)n(Cc2ccc(C)cc2)c1=O` [Compound I-1300], for which the 50% inhibitory concentration (IC50) was 18 nM.

Regarding `CCC(=O)Nc1cc(Oc2ccc(/N=c3\[nH]c(=O)n(CC)c(=O)n3Cc3ccc(Cl)cc3)cc2)ccn1` [Compound I-2217], the IC50 is 6 nM.

Consider `CC1(C)OCC(Cn2c(=O)[nH]/c(=N\c3ccc(OC4CCC4)cc3)n(Cc3ccc(Cl)cc3)c2=O)CO1` [Compound I-1965], for which the IC50 is 3 nM.

`CCn1c(=O)[nH]/c(=N\c2ccc(Oc3cncc(C(N)=O)c3)cc2)n(CC2CCC3(CC2)CC3)c1=O` [Compound I-2178]: the IC50 amounted to 5 nM.

Regarding `CC(C)Oc1ccc(/N=c2\[nH]c(=O)n(C[C@H](C)C(=O)O)c(=O)n2Cc2ccccc2)cc1Cl` [Compound I-0794], the IC50 was found to be 168 nM.

On to `COC(=O)[C@@H](C)Cn1c(=O)[nH]/c(=N\c2ccc(CC(C)C)c(OC)c2)n(Cc2ccc(Cl)cc2)c1=O` [Compound I-1247], for which the IC50 is 28 nM.

`CCCn1c(=O)[nH]/c(=N\c2ccc(Oc3ccc(C(N)=O)nc3)cc2)n(Cc2ccc(Cl)cc2)c1=O` [Compound I-2203]: the IC50 came to 1 nM.

Still in this test, the particulars now being: C6BU-1 cells stably expressing human P2X3 receptor, Fluo-3 fluorescence, FDSS 3000.
`Cc1nc2ccc(/N=c3\[nH]c(=O)n(CCCO)c(=O)n3Cc3ccc(Cl)cc3)cc2s1` [Compound I-1619]: the IC50 is 6 nM.

Take `CCOC(=O)CCn1c(=O)[nH]/c(=N\c2ccc(O[C@H](C)CC)c(C)c2)n(Cc2ccc(C)cc2)c1=O` [Compound I-1019]: the IC50 was found to be 7 nM.

`Cc1ccc(Cn2c(=O)n(C[C@H](C)C(=O)O)c(=O)[nH]/c2=N\c2ccc(OCCC(C)C)cc2)cc1` [Compound I-1063]: the IC50 amounted to 152 nM.

In the case of `C[C@@H](C(=O)O)[C@H](C)n1c(=O)[nH]/c(=N\c2ccc3c(c2)OC(F)(F)C(F)(F)O3)n(Cc2ccc(Cl)cc2)c1=O` [Compound I-1783], the IC50 stood at 170 nM.

On to `CC[C@@H](C)Oc1ccc(/N=c2\[nH]c(=O)n(CCC(=O)O)c(=O)n2Cc2ccc(C)cc2)cc1` [Compound I-1028], for which the IC50 is 78 nM.

Regarding `CCOC(=O)C1(Cn2c(=O)[nH]/c(=N\c3ccc(OCC4CC4)cc3)n(Cc3ccc(C)cc3)c2=O)CC1` [Compound I-0913], the IC50 was found to be 9 nM.

With `Cc1ccc(Cn2c(=O)n(C[C@H](C)C(=O)O)c(=O)[nH]/c2=N\c2cccc(C3=CCCCC3)c2)cc1` [Compound I-1112], the IC50 came out at 872 nM.

In the case of `CC(C)Oc1ccc(/N=c2\[nH]c(=O)n(CCC(=O)O)c(=O)n2CC2C[C@H]3CC[C@@H]2C3)cc1F` (some centres unmarked) [Compound I-1862], the IC50 turned out to be 552 nM.

Regarding `Cc1ccc(Cn2c(=O)n(C[C@H](C)C(=O)O)c(=O)[nH]/c2=N\c2ccc(N3CCCC3)cc2)cc1` [Compound I-1091], the concentration for half-maximal inhibition (IC50) stood at 179 nM.

Turning to `Cc1ccc(Cn2c(=O)n(C[C@H](C)C(=O)O)c(=O)[nH]/c2=N\c2ccc(Oc3ccn(C)c(=O)c3)cc2)cc1` [Compound I-1595], the IC50 is 6 nM.

In the case of `CCc1oc2ccc(/N=c3\[nH]c(=O)n(CC4COC(C)(C)OC4)c(=O)n3Cc3ccc(Cl)cc3)cc2c1C` [Compound I-1840], the IC50 was determined as 7 nM.

For the molecule `CC[C@H](C)COc1ccc(/N=c2\[nH]c(=O)n(CCC(=O)O)c(=O)n2Cc2ccc(C)cc2)cc1` [Compound I-1066], the half-maximal inhibitory concentration (IC50) is 425 nM.

On to `CC[C@@H](C)Oc1ccc(/N=c2\[nH]c(=O)n(C[C@H](C)C(=O)O)c(=O)n2Cc2ccc(Cl)cn2)cc1Cl` [Compound I-1626], for which the IC50 is 18 nM.

Staying with this test, now noted: human P2X3 receptor, Test Example 1.
In the case of `CCOc1ccc(/N=c2\[nH]c(=O)n(CCC(=O)O)c(=O)n2Cc2ccc(C)cc2)cc1Cl` [Compound I-0882], the IC50 was found to be 100 nM.

Regarding `CC(C)Oc1ccc(/N=c2\[nH]c(=S)n(C(C)C)c(=O)n2Cc2ccc(Cl)cc2)cc1Cl` [Compound I-2257, 1-(4-chlorobenzyl)-3-isopropyl-6-(3-chloro-4-isopropoxyphenylimino)-4-thioxo-1,3,5-triazinane-2-one], the 50% inhibitory concentration (IC50) stood at 151 nM.

As for `CCn1c(=O)[nH]/c(=N\c2ccc(Oc3cccc(C(=O)O)n3)cc2)n(C[C@H]2CC[C@H](C)CC2)c1=O` [Compound I-2499], the concentration for half-maximal inhibition (IC50) amounted to 5 nM.

On to `CCc1cc2cc(/N=c3\[nH]c(=O)n(CCCOC4CCCCO4)c(=O)n3Cc3ccc(Cl)cc3)ccc2o1` (centres unmarked) [Compound I-2335], for which the IC50 came out at 6 nM.

Take `CNC(=O)Cn1c(=O)[nH]/c(=N\c2ccc(Oc3cccc(F)n3)cc2)n(Cc2ccc(Cl)cc2)c1=O` [Compound I-2585]: the IC50 was 8 nM.

In the case of `CC1(Cn2c(=O)[nH]/c(=N\c3ccc(Oc4ccon4)cc3)n(Cc3ccc(F)cc3)c2=O)COC(C)(C)OC1` [Compound I-2396], the IC50 was 6 nM.

In the case of `CCn1c(=O)[nH]/c(=N\c2ccc(Oc3ccc(C(=O)O)c(F)c3)cc2)n(Cc2ccc(Cl)cc2)c1=O` [Compound I-2226], the IC50 stood at 12 nM.

As to `CCn1c(=O)[nH]/c(=N\c2ccc(Oc3ccc(C(=O)O)cc3)nc2)n(Cc2ccc(Cl)cc2)c1=O` [Compound I-2621], the IC50 was 265 nM.

For the molecule `NC(=O)c1cccc(Oc2ccc(/N=c3\[nH]c(=O)n(CCC(=O)O)c(=O)n3Cc3ccc(Cl)cc3)cc2)n1` [Compound I-2693], the half-inhibitory concentration (IC50) was 12 nM.

Consider `COC(=O)[C@@H](C)Cn1c(=O)[nH]/c(=N\c2ccc(C(C)C)c(Cl)c2)n(Cc2ccc(C)cc2)c1=O` [Compound I-1493], for which the IC50 is 444 nM.

On to `Cc1ccc(Cn2c(=O)n(C[C@H](C)C(=O)O)c(=O)[nH]/c2=N\c2ccc(Oc3ccccc3)nc2)cc1` [Compound I-1517], for which the IC50 turned out to be 240 nM.

Take `Cn1cc(Oc2ccc(/N=c3\[nH]c(=O)n(CCC(=O)O)c(=O)n3Cc3ccc(Cl)cc3)cc2)ccc1=O` [Compound I-1512]: the 50% inhibitory concentration (IC50) was found to be 13 nM.

On to `O=c1[nH]/c(=N\c2ccc(Oc3cncc(F)c3)cc2)n(Cc2ccc(Cl)cc2)c(=O)n1C[C@H](O)CO` [Compound I-2334], for which the IC50 worked out at 5 nM.

For the molecule `COC(=O)CCn1c(=O)[nH]/c(=N\c2ccc(Oc3cccc(C#N)n3)cc2)n(Cc2ccc(Cl)cc2)c1=O` [Compound I-2666], the IC50 came out at 2 nM.

For `CC1(C)OCC(Cn2c(=O)[nH]/c(=N\c3ccc(Oc4ccon4)cc3)n(Cc3ccc(Cl)cc3)c2=O)CO1` [Compound I-2287], the 50% inhibitory concentration (IC50) is less than 4 nM.

With `CCn1c(=O)[nH]/c(=N\c2ccc(Oc3ccnc(C(=O)O)c3)cc2)n(Cc2ccc(F)cc2)c1=O` [Compound I-2360], the IC50 is 11 nM.

As to `Cc1nc2ccc(/N=c3\[nH]c(=O)n(CC4COC(C)(C)OC4)c(=O)n3Cc3ccc(Cl)cc3)cc2s1` [Compound I-1542], the IC50 stood at 4 nM.

Regarding `O=c1[nH]/c(=N\c2ccc(Oc3nccs3)cc2)n(Cc2ccc(Cl)cc2)c(=O)n1C[C@@H](O)CO` [Compound I-2506], the IC50 was found to be 14 nM.

For `CCn1c(=O)[nH]/c(=N\c2ccc(Oc3cccc(C(=O)O)n3)c(F)c2)n(Cc2ccc(Cl)cc2)c1=O` [Compound I-2498], the IC50 turned out to be 3 nM.

`CCCn1c(=O)[nH]/c(=N\c2ccc(Oc3ccc(C#N)nc3)cc2)n(Cc2ccc(Cl)cc2)c1=O` [Compound I-2230]: the half-inhibitory concentration (IC50) is 2 nM.

As to `COC(=O)c1cncc(Oc2ccc(/N=c3\[nH]c(=O)n(C)c(=O)n3Cc3ccc(Cl)cc3)cc2)n1` [Compound I-2469], the IC50 was found to be 19 nM.

For the molecule `O=c1[nH]/c(=N\c2ccc(Oc3ccn[nH]3)cc2)n(Cc2ccc(Cl)cc2)c(=O)n1CC(CO)CO` [Compound I-2454], the half-maximal inhibitory concentration (IC50) worked out at 35 nM.

`CCc1oc2ccc(/N=c3\[nH]c(=O)n(CCC(=O)O)c(=O)n3Cc3ccc(Cl)cc3)cc2c1C` [Compound I-1507]: the IC50 came to 15 nM.

On to `CCn1c(=O)[nH]/c(=N\c2ccc(Oc3ccnc(NCC(N)=O)c3)cc2)n(Cc2ccc(Cl)cc2)c1=O` [Compound I-2554], for which the IC50 worked out at 7 nM.
